According to publication PMC12670164, “In vitro and clinical data demonstrate negligible risk of drug–drug interactions with opelconazole, a novel inhaled antifungal agent” (Journal of Antimicrobial Chemotherapy, 2025):
pIC50: −log10 of the molar value. ≈ marks a conversion by molar mass, not a printed value. Like-named read-outs stand apart in the source and are kept apart here.

How the values were obtained:
[1] = tested on: Aspergillus fumigatus clinical strains; design: method as in PMID 33340279; conditions: cited from earlier work
[2] = biological target: CYP2C9 (Homo sapiens, UniProt P11712); test: Reaction phenotyping with recombinant CYP enzymes (opelconazole as substrate); format: in vitro ADME; conditions: incubated with 0.01 and 0.1 µM opelconazole
Protocol: The testing of opelconazole as a potential substrate of CYP1A2, 2B6, 2C8, 2C9, 2C19, 2D6 and 3A4 was determined in vitro using recombinant CYP enzymes. Two concentrations of opelconazole (0.01 and 0.1 µM) were tested with each of the seven CYPs.
The relative contributions of CYP3A4 and CYP2C9 were ∼75% and 25%, respectively, when incubated with 0.01 and 0.1 µM opelconazole.

[3] = tested on: OAT1, OAT3, OCT1, OCT2, OATP1B1, OATP1B3, MATE-1, MATE2-K, P-gp, BCRP, BSEP; test: Opelconazole as substrate of carrier transporters; format: in vitro ADME, human; conditions: 0.5 and 5 μM; MDCKII, HEK293 cells, BSEP sf9 vesicles
Protocol: (§1) Human transporter protein interactions with opelconazole as a potential substrate and/or inhibitor were assessed for the following key carrier transporters: organic anion transporters, OAT1 and OAT3; organic cation transporters, OCT1 and OCT2; OATP1B1 and OATP1B3; multidrug and toxin extrusion, MATE-1 and MATE2-K; key ATP-binding cassette (ABC) transporters including P-gp, breast cancer resistance protein (BCRP) and bile salt export pump (BSEP). Two concentrations of opelconazole, 0.5 and 5 μM, were tested using MDCKII cells, human embryonic kidney 293 cells and BSEP-transfected sf9 membrane vesicles and then analysed by LC-tandem MS to determine transporter inhibition and whether opelconazole was a transporter substrate. The viability of experimental test systems was confirmed with controls and known probe substrates and probe inhibitors.

[4] = biological target: CYP3A4 (Homo sapiens, UniProt P08684); conditions: for pIC50: read-out: IC50, CYP3A4
Protocol: The potential for opelconazole to inhibit CYP isoforms was tested in vitro in human liver microsomes. […] Preincubation of the human liver microsomes for periods of 0 min without NADPH and 30 min with NADPH, plus 30 min without NADPH were included to assess for a time-dependent inhibition effect. Two structurally diverse substrates (testosterone and midazolam) were tested to assess substrate-dependent inhibition.

[5] = tested on: cryopreserved human hepatocytes; test: MTT cytotoxicity assessment in hepatocytes; format: cell-based; conditions: up to 3 μM, one donor
Protocol: The hepatocyte cells were dosed with opelconazole (0.012, 0.03, 0.12, 0.3, 1.2 and 3 μM) and positive control compounds (omeprazole for CYP1A2 and rifampicin for CYP3A4).

[6] = tested on: CYP3A4
Protocol: The potential for opelconazole to act as an inducer of CYP isoforms CYP1A2, CYP2B6 and CYP3A4 was assessed in vitro using an mRNA endpoint across three donors in cryopreserved human hepatocytes.
A cytotoxicity assessment using MTT was performed in one of the three donors used for the induction studies prior to dosing.

[7] = biological target: T1, BCRP (Homo sapiens, UniProt Q9UNQ0); test: Transporter inhibition; format: in vitro ADME
T1 construct: expressed in transfected cells
T1 sequence (Q9UNQ0 1-655): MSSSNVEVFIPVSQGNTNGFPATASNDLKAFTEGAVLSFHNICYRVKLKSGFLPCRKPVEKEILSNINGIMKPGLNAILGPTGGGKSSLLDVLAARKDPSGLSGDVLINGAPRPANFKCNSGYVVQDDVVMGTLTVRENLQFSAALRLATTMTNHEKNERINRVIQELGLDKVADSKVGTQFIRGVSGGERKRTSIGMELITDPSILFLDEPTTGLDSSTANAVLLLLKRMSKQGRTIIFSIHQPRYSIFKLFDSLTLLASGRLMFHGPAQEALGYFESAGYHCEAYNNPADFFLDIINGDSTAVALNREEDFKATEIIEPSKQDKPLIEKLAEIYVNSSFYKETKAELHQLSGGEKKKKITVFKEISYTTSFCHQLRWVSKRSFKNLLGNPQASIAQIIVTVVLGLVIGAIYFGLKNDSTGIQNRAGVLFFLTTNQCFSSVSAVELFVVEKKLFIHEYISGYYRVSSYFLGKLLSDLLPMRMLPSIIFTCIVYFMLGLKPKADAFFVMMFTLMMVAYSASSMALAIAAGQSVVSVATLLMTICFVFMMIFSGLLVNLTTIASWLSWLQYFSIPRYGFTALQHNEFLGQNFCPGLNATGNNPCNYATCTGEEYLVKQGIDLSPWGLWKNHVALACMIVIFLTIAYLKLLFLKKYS
Protocol: as §1

[8] = biological target: T2, BSEP (Homo sapiens, UniProt O95342); test: Transporter inhibition; format: in vitro ADME; conditions: 0.5 and 5 μM tested
T2 construct: expressed in transfected cells; host or cells: Sf9 membrane vesicles
Protocol: as §1

[9] = biological target: T3, OAT3 (Homo sapiens, UniProt Q8TCC7); test: Transporter inhibition; format: in vitro ADME; conditions: 0.5 and 5 μM tested
T3 construct: expressed in transfected cells
T3 sequence (Q8TCC7 1-542): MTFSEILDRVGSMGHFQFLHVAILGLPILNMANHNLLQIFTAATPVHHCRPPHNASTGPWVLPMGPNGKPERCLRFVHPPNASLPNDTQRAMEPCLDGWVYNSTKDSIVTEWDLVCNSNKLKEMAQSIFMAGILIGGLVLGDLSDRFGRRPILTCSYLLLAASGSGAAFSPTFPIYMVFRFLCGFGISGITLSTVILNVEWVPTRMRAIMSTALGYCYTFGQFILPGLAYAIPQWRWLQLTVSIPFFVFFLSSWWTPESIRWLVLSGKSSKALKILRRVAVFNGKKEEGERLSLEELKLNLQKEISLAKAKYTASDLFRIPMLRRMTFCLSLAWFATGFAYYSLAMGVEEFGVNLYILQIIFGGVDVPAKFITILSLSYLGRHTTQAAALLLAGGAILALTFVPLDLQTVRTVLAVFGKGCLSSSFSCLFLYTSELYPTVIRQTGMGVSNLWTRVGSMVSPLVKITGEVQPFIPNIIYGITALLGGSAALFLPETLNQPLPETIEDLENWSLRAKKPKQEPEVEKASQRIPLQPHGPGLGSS
Protocol: as §1

[10] = substrate midazolam, 30-min preincubation

Sequence of CYP3A4 (Homo sapiens, UniProt P08684) (P08684 whole entry, canonical isoform): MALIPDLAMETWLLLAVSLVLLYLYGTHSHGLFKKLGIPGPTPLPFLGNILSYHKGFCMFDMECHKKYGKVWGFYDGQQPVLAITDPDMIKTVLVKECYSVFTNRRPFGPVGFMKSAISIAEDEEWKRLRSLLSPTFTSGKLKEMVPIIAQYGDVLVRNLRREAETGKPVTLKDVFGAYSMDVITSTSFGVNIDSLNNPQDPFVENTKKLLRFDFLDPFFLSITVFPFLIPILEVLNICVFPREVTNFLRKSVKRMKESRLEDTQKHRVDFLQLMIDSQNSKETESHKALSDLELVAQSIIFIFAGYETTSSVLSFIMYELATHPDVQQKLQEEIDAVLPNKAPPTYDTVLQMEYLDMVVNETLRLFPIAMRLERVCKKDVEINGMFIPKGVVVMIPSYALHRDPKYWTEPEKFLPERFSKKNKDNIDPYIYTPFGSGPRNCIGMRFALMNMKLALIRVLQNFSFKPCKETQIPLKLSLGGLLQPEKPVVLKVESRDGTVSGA
Sequence of CYP2C9 (P11712 whole entry): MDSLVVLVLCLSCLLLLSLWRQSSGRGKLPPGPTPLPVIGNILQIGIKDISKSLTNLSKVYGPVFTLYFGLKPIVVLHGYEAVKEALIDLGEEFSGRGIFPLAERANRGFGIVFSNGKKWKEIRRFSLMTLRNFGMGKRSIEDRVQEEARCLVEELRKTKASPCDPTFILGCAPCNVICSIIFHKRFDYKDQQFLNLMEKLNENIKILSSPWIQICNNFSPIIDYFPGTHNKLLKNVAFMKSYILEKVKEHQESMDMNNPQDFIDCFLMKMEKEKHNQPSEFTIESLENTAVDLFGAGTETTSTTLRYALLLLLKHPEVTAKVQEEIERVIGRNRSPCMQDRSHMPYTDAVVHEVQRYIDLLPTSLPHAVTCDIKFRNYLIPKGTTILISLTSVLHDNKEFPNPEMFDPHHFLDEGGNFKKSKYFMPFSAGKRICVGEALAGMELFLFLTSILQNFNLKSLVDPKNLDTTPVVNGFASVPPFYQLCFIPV
T2 sequence (O95342 whole entry): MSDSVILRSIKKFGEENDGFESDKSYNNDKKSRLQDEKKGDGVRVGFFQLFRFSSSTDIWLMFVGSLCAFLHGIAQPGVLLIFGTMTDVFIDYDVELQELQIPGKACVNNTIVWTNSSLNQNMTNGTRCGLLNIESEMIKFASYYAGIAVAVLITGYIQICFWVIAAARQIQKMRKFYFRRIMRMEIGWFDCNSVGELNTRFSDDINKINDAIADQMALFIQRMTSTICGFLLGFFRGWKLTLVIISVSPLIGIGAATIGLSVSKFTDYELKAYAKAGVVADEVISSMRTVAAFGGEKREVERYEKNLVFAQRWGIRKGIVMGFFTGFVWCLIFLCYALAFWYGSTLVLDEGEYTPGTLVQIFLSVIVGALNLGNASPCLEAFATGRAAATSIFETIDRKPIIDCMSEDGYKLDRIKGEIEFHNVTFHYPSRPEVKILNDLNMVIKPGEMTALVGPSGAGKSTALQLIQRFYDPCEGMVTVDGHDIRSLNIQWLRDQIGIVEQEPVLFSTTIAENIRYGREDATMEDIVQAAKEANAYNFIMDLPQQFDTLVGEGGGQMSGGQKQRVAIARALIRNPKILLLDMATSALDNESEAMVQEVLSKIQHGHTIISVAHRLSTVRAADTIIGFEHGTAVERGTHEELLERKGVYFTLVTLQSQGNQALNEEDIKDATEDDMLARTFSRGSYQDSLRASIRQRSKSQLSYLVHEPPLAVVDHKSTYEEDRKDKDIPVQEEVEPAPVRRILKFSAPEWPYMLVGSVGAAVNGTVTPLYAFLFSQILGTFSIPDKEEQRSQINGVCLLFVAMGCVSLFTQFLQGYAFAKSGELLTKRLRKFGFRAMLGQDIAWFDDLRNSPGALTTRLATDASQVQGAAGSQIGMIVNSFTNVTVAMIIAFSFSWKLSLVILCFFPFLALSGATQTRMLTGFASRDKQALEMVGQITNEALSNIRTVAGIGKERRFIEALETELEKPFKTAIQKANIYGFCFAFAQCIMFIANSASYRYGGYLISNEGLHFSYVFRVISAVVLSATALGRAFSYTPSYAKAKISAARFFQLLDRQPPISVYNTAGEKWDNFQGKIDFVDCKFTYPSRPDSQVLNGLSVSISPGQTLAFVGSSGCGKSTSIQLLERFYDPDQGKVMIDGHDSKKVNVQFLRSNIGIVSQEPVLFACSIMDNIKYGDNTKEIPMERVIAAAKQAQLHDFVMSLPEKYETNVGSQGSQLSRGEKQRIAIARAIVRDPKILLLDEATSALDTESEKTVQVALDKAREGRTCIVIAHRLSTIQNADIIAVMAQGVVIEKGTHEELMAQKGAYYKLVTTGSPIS

Question: For `Cc1cc(N2CCN(c3ccc(C(=O)Nc4ccc(F)cc4)cc3)CC2)ccc1OC[C@@H]1CO[C@@](Cn2cncn2)(c2ccc(F)cc2F)C1` [opelconazole], which “minimal inhibitory concentration required to inhibit 90% of clinical strains” value [1] is on record?
Answer: The value was 1 µg/mL.

Question: What about the “relative contribution of CYP2C9 to metabolism of opelconazole” value [2] of the same molecule?
Answer: The value was roughly 25%.

Question: What about the “substrate of carrier transporters” value [3] of the same molecule?
Answer: The value was “not a substrate”.

Question: And the pIC50 [4, 10]?
Answer: Its pIC50 is roughly 6.82.

Question: What about the pIC50 ([4]; substrate midazolam, without pre-incubation, 0.001–0.25 µM) of the same molecule?
Answer: The pIC50 was 6.91.

Question: What about the pIC50 ([4]; substrate testosterone, 30-min preincubations with or without NADPH) of the same molecule?
Answer: Its pIC50 is 6.82.

Question: What about the pIC50 ([4]; substrate testosterone, without pre-incubation, 0.001–0.25 µM) of the same molecule?
Answer: The pIC50 was less than 6.60.

Question: And the “IC50, CYP3A4” value [4, 10]?
Answer: The value was roughly 0.102 µg/mL (≈ 0.149 µM).

Question: And the “time-dependent inhibition of CYP3A4” value [4, 10]?
Answer: The value was “not evident”.

Question: And the “cytotoxicity (MTT)” value [5]?
Answer: Its value is “no cytotoxicity was observed”.

Question: And the “CYP3A4 mRNA expression increase” value ([6]; donor 1, only at 0.3 μM, 72 h)?
Answer: Its value is 2.17 fold.

Question: What about the “CYP3A4 mRNA expression increase” value ([6]; donors 2 and 3, any concentration (0.012–3 μM)) of the same molecule?
Answer: The value was less than 2 fold.

Question: And the “inhibition of BCRP relative to solvent control” value ([7]; 0.5 μM opelconazole)?
Answer: Its value is 52%.

Question: What about the “inhibition of BCRP relative to solvent control” value ([7]; 5 μM opelconazole) of the same molecule?
Answer: The value was 56%.

Question: And the “inhibitory interaction with BSEP” value [8]?
Answer: The value was “negligible inhibitory interactions”.

Question: What about the “inhibitory interaction with OAT3” value [9] of the same molecule?
Answer: The value was “negligible inhibitory interactions”.
